Reference: patent US7807422B2, “Production of flavonoids by recombinant microorganisms” (The Research Foundation of State University of New York, priority 2004, dated 2010)

System: flavanone biosynthesis in recombinant yeast strain INV-4G
Test: Eriodictyol production from caffeic acid by INV-4G in the presence of luteolin
Assay type: cell-based, S. cerevisiae
Details: varying luteolin concentrations (1, 3, 10 mg/L)
Excerpt: Heterologous expression and fermentation. In order to assemble the two different flavone biosynthetic pathways, recombinant INVSc1 carrying plasmid Ycc4c181G was transformed with YC-FSI, YC-FSII or YC-FSII+CPR1 separately, yielding recombinant strains INV-4G+FSI, INV-4G+FSII, and INV-4G+FSII+CPR1. Yeast colonies harboring both plasmids were selected upon growth on SC agar plates lacking leucine and tryptophan (SC-Leu-Trp-). For flavone fermentation purposes, an individual recombinant yeast colony was grown overnight in 10-mL liquid SC-Leu-Trp-containing glucose at 30° C. with shaking. The following day, a portion of this culture was used to seed the main culture of SC-Leu-Trp-containing galactose and raffinose or MA-Leu-Trp-containing galactose and acetate to an Ab600 of 0.4. 0.5 mM of phenylpropanoid acid (cinnamic acid, p-coumaric acid, caffeic acid, ferulic acid) was then added to the main culture, and incubation was carried out at 30° C. with horizontal shaking for a maximum of 92 hours.
The efficiency of eriodictyol production from caffeic acid by INV-4G in the presence of varying luteolin concentrations was also tested.

O=c1cc(-c2ccc(O)c(O)c2)oc2cc(O)cc(O)c12 [luteolin]
regulation (feedback inhibition) of flavanone biosynthesis: did not regulate
